Experimental data taken from patent US9364482B2, “Substituted benzofuran compounds and methods of use thereof for the treatment of viral diseases” (priority 2013, dated 2016).

Columns and labels:
HCV replicon genotype 1a = assay: microbe, parasite or virus in culture; format: cell-based, hepatitis C virus (HCV); conditions: Hepatitis C virus, 96 h, read-out: 1a IC50 (nM)
HCV replicon genotype 1b = assay: microbe, parasite or virus in culture; format: cell-based, hepatitis C virus (HCV); conditions: Hepatitis C virus, 96 h, read-out: 1b IC50 (nM)

SMILES | IC50 (HCV replicon genotype 1a) [nM] | IC50 (HCV replicon genotype 1b) [nM]
CNC(=O)c1c(-c2ccc(F)cc2)oc2cc(N(C)S(C)(=O)=O)c(-c3ccc4nnn(Cc5ccc(F)cc5OC)c(=O)c4c3)cc12 [Compound 47, 5-[3-(4-fluoro-2-methoxybenzyl)-4-oxo-3,4-dihydro-1,2,3-benzotriazin-6-yl]-2-(4-fluorophenyl)-N-methyl-6-[methyl(methylsulfonyl)amino]-1-benzofuran-3-carboxamide] | 20.2 | 20.6
CNC(=O)c1c(-c2ccc(F)cc2)oc2cc(N(C)S(C)(=O)=O)c(-c3ccc4nnn(Cc5ccc(F)cn5)c(=O)c4c3)cc12 [Compound 48, 2-(4-fluorophenyl)-5-{3-[(5-fluoropyridin-2-yl)methyl]-4-oxo-3,4-dihydro-1,2,3-benzotriazin-6-yl}-N-methyl-6-[methyl(methylsulfonyl)amino]-1-benzofuran-3-carboxamide] | 6.93 | 5.97
CNC(=O)c1c(-c2ccc(F)cc2)oc2cc(N(C)S(C)(=O)=O)c(-c3ccc4ncn(Cc5ccccc5)c(=O)c4c3)cc12 [Compound 49, 5-(3-benzyl-4-oxo-3,4-dihydroquinazolin-6-yl)-2-(4-fluorophenyl)-N-methyl-6-(N-methylmethylsulfonamido)benzofuran-3-carboxamide] | 6.25 | 10.2
CNC(=O)c1c(-c2ccc(F)cc2)oc2cc(N(C)S(C)(=O)=O)c(-c3ccc4ncn([C@H](C)c5ccc(F)cc5)c(=O)c4c3)cc12 [Compound 50, 2-(4-fluorophenyl)-5-{3-[(1R)-1-(4-fluorophenyl)ethyl]-4-oxo-3,4-dihydroquinazolin-6-yl}-N-methyl-6-[methyl(methylsulfonyl)amino]-1-benzofuran-3-carboxamide] | 3.18 | 4.23
CNC(=O)c1c(-c2ccc(F)cc2)oc2cc(N(C)S(C)(=O)=O)c(-c3ccc4ncn(Cc5ccc(F)cc5OC)c(=O)c4c3)cc12 [Compound 51, 5-[3-(4-fluoro-2-methoxybenzyl)-4-oxo-3,4-dihydroquinazolin-6-yl]-2-(4-fluorophenyl)-N-methyl-6-[methyl(methylsulfonyl)amino]-1-benzofuran-3-carboxamide] | 8.98 | 2.35
CNC(=O)c1c(-c2ccc(F)cc2)oc2cc(N(C)S(C)(=O)=O)c(-c3ccc4ncn(Cc5ccc(F)cn5)c(=O)c4c3)cc12 [Compound 52, 2-(4-fluorophenyl)-5-{3-[(5-fluoropyridin-2-yl)methyl]-4-oxo-3,4-dihydroquinazolin-6-yl}-N-methyl-6-[methyl(methylsulfonyl)amino]-1-benzofuran-3-carboxamide] | 6.37 | 2.11
CNC(=O)c1c(-c2ccc(F)cc2)oc2cc(N(C)S(C)(=O)=O)c(-c3ccc4nc(COC)n(Cc5ccc(F)cc5)c(=O)c4c3)cc12 [Compound 53, 5-(3-(4-fluorobenzyl)-2-(methoxymethyl)-4-oxo-3,4-dihydroquinazolin-6-yl)-2-(4-fluorophenyl)-N-methyl-6-(N-methylmethylsulfonamido)benzofuran-3-carboxamide] | 2.57 | 2.45
CNC(=O)c1c(-c2ccc(F)cc2)oc2cc(N(C)S(C)(=O)=O)c(-c3ccc4nc(CNC(C)=O)n(Cc5ccc(F)cc5)c(=O)c4c3)cc12 [Compound 54, 5-{2-[(acetylamino)methyl]-3-(4-fluorobenzyl)-4-oxo-3,4-dihydroquinazolin-6-yl}-2-(4-fluorophenyl)-N-methyl-6-[methyl(methylsulfonyl)amino]-1-benzofuran-3-carboxamide] | 2.34 | 2.73
CNC(=O)c1c(-c2ccc(F)cc2)oc2cc(N(C)S(C)(=O)=O)c(-c3ccc4nc(C)n(Cc5ccc(F)cc5)c(=O)c4c3)cc12 [Compound 55, 5-[3-(4-fluorobenzyl)-2-methyl-4-oxo-3,4-dihydroquinazolin-6-yl]-2-(4-fluorophenyl)-N-methyl-6-[methyl(methylsulfonyl)amino]-1-benzofuran-3-carboxamide] | 1.93 | 2.42
CNC(=O)c1c(-c2ccc(F)cc2)oc2cc(N(C)S(C)(=O)=O)c(-c3ccc4nc(C)n([C@H](C)c5ccc(F)cc5)c(=O)c4c3)cc12 [Compound 57, (R)-2-(4-fluorophenyl)-5-(3-(1-(4-fluorophenyl)ethyl)-2-methyl-4-oxo-3,4-dihydroquinazolin-6-yl)-N-methyl-6-(N-methylmethylsulfonamido)benzofuran-3-carboxamide] | 9.65 | 9.82
CNC(=O)c1c(-c2ccc(F)cc2)oc2cc(N(C)S(C)(=O)=O)c(-c3ccc4nc(C)n(Cc5ccc(F)cc5OC)c(=O)c4n3)cc12 [Compound 63, 5-(3-(4-fluoro-2-methoxybenzyl)-2-methyl-4-oxo-3,4-dihydropyrido[3,2-d]pyrimidin-6-yl)-2-(4-fluorophenyl)-N-methyl-6-(N-methylmethylsulfonamido)benzofuran-3-carboxamide] | 23.7 | 9
CNC(=O)c1c(-c2ccc(F)cc2)oc2cc(N(C)S(C)(=O)=O)c(-c3ccc4nc(C)n(Cc5ccc(F)cc5F)c(=O)c4n3)cc12 [Compound 64, 5-(3-(2,4-difluorobenzyl)-2-methyl-4-oxo-3,4-dihydropyrido[3,2-d]pyrimidin-6-yl)-2-(4-fluorophenyl)-N-methyl-6-(N-methylmethylsulfonamido)benzofuran-3-carboxamide] | 4.12 | 3.63
CNC(=O)c1c(-c2ccc(F)cc2)oc2cc(N(C)S(C)(=O)=O)c(-c3ccc4nc(C)n([C@@H](COC)c5ccc(F)cc5)c(=O)c4n3)cc12 [Compound 65, (R)-2-(4-fluorophenyl)-5-(3-(1-(4-fluorophenyl)-2-methoxyethyl)-2-methyl-4-oxo-3,4-dihydropyrido[3,2-d]pyrimidin-6-yl)-N-methyl-6-(N-methylmethylsulfonamido)benzofuran-3-carboxamide] | 9.28 | 2.95
CNC(=O)c1c(-c2ccc(F)cc2)oc2cc(N(C)S(C)(=O)=O)c(-c3ccc4nc(C)n([C@H](CCO)c5ccc(F)cc5)c(=O)c4n3)cc12 [Compound 66, (R)-2-(4-fluorophenyl)-5-(3-(1-(4-fluorophenyl)-3-hydroxypropyl)-2-methyl-4-oxo-3,4-dihydropyrido[3,2-d]pyrimidin-6-yl)-N-methyl-6-(N-methylmethylsulfonamido)benzofuran-3-carboxamide] | 7.29 | 4.06
CNC(=O)c1c(-c2ccc(F)cc2)oc2cc(N(C)S(C)(=O)=O)c(-c3ccc4nc(C)n([C@H](COC)c5ccc(F)cc5)c(=O)c4n3)cc12 [Compound 67, (S)-2-(4-fluorophenyl)-5-(3-(1-(4-fluorophenyl)-2-methoxyethyl)-2-methyl-4-oxo-3,4-dihydropyrido[3,2-d]pyrimidin-6-yl)-N-methyl-6-(N-methylmethylsulfonamido)benzofuran-3-carboxamide] | 4.97 | 3.77
CNC(=O)c1c(-c2ccc(F)cc2)oc2cc(N(C)S(C)(=O)=O)c(-c3ccc4nc(C)n(Cc5ccc(F)cc5)c(=O)c4n3)cc12 [Compound 68, 5-(3-(4-fluorobenzyl)-2-methyl-4-oxo-3,4-dihydropyrido[3,2-d]pyrimidin-6-yl)-2-(4-fluorophenyl)-N-methyl-6-(N-methylmethylsulfonamido)benzofuran-3-carboxamide] | 2 | 2.24
